Experimental data taken from US8697662B2, “Methods for treating Kaposi sarcoma” (PTC Therapeutics, Inc., priority 2009, dated 2014).
Blank lines part the entries; values can stand above or below the compound they belong to.

How the values were obtained:
[1] = test system: hypoxia-inducible endogenous VEGF expression; assay: Hypoxia-inducible endogenous VEGF expression ELISA in HeLa cells, dose-response EC50 (Table 3); type: cell-based; conditions: Homo sapiens, hypoxic conditions (1% O2), VEGF ELISA of conditioned media
Protocol: The ability of the Compounds to modulate hypoxia-inducible endogenous VEGF expression may be analyzed as follows. VEGF protein levels may be monitored by an ELISA assay (R&D Systems). Briefly, HeLa cells may be cultured for 24-48 hours under hypoxic conditions (1% O2, 5% CO2, balanced with nitrogen) in the presence or absence of a Compound. The conditioned media may then be assayed by ELISA, and the concentration of VEGF calculated from the standard ELISA curve of each assay.
A dose-response analysis may be performed using the ELISA assay and conditions described above. The conditions for the dose-response ELISA are analogous to those described above. A series of, e.g., seven different concentrations may be analyzed. In parallel, a dose-response cytotoxicity assay may be performed using Cell Titer Glo (Promega) under the same conditions as the ELISA to ensure that the inhibition of VEGF expression was not due to the cytotoxicity.

HT1080 xenografts [2] = assay: BrdU labeling of tumor cells from HT1080 xenografts in vivo; design: species or system athymic nude mice; conditions: HT1080 xenografts, 1, 2, or 3 days of treatment
Protocol: (§1) Experimental Design. HT1080 cells (5×10^6 cells/mouse) were implanted subcutaneously in male athymic nude mice.
The mice were sacrificed 3 hours later, and the tumors collected. A single cell suspension was prepared from the tumor cells. The cells were permeabilized and an antibody to BrdU was used to stain cells that had entered S phase during the labeling period. The proportion of cells actively synthesizing DNA was determined by cell sorting.

HT1080 xenografts [3] = assay: Time course of tumor size and plasma human VEGF in HT1080 xenografts; type: in vivo, athymic nude mice; conditions: by Day 1
Protocol: as §1
Tumor size was measured by calipers immediately pre-treatment and at the time of sacrifice on Day 1, 2, or 3 (5 mice per group per day). At sacrifice, the plasma was collected for assay of pathologic human VEGF concentration using an ELISA that recognizes human VEGF121 and VEGF165 (as described in Section 9.1.1.1).

[4] = test system: KS-like angioproliferative lesions; conditions: nude mice, doses similar to AIDS patients; cited from earlier work
HT1080 cells = assay: Cell cycle analysis by propidium iodide flow cytometry in HT1080 cells (S-phase accumulation, Table 24); type: cell-based, human; conditions: same tumor cells; data not shown
Protocol: Experimental Design. […] After treatment, cells were trypsinized, and stained with propidium iodide (PI) dye to measure DNA content of individual cells by flow cytometry. Output comprised histograms showing relative DNA content in 10,000 cells.
While compounds which cause greater than 20% of the cells to accumulate in S-phase at 100 nM are considered active, a larger percentage of cells may be accumulated in S-phase at lower doses depending on the Compound, as shown in FIG. 12 for example.

[5] = test system: primary endothelial cells; conditions: in-vitro; cited from earlier work

- EC50 [1]: < 8 nM
SMILES: NC(=O)COc1ccc(C2c3[nH]c4ccc(Cl)cc4c3CCN2C(=O)Oc2ccc(Cl)cc2)cc1 (stereo not drawn) [Compound 1161]

- EC50 ([1]; 24-48 hours): 8 to 40 nM
SMILES: CC(CO)(CO)COc1ccc([C@H]2c3[nH]c4ccc(Cl)cc4c3CCN2C(=O)Oc2ccc(F)cc2)cc1 [Compound 1335]

SMILES: COc1cccc2c1C(=O)c1c(O)c3c(c(O)c1C2=O)C[C@@](O)(C(=O)CO)C[C@@H]3O[C@H]1C[C@H](N)[C@H](O)[C@H](C)O1 [doxorubicin, reference compound]
- BrdU staining of tumor cells (fraction in S phase) (in words) (HT1080 xenografts [2]): decreased the percentage of tumor cells staining with BrdU
- pathologic plasma human VEGF levels (in words) (HT1080 xenografts [3]): numerically lower than in control animals

SMILES: CC(C)(C)NC(=O)[C@@H]1CN(Cc2cccnc2)CCN1C[C@@H](O)C[C@@H](Cc1ccccc1)C(=O)N[C@H]1c2ccccc2C[C@H]1O [indinavir]
- macroscopic KS-like angioproliferative lesions (in words) [4]: reduction in the number and size

SMILES: NC(Cn1ccc(=O)c(O)c1)C(=O)O (stereo not drawn) [mimosine, reference compound]
- effect on cell cycle (and VEGF production) (in words) (HT1080 cells): does not delay or prolong the cell cycle or reduce VEGF production

SMILES: CC(C)c1nc(CN(C)C(=O)N[C@H](C(=O)N[C@@H](Cc2ccccc2)C[C@H](O)[C@H](Cc2ccccc2)NC(=O)OCc2cncs2)C(C)C)cs1 [ritonavir]
- activation and proliferation of primary endothelial cells (in words) [5]: inhibition of activation and proliferation
- production of TNF-α, IL-6, IL-8 and VEGF (in words) [5]: decreased production

SMILES: CC(C)(C)NC(=O)[C@@H]1C[C@@H]2CCCC[C@@H]2CN1C[C@@H](O)[C@H](Cc1ccccc1)NC(=O)[C@H](CC(N)=O)NC(=O)c1ccc2ccccc2n1 [saquinavir]
- macroscopic KS-like angioproliferative lesions (in words) [4]: reduction in the number and size
